Data reported in patent US7410986B2, “4-6-diphenyl pyridine derivatives as antiinflammatory agents” (Bayer Aktiengesellschaft, priority 2000, dated 2008).
Counter-ions that a name gives are not always drawn.

Tests used:
[1] = tested on: RANTES production in response to TNF-α from A549 cells; experiment: RANTES production in response to TNF-α from A549 cells; assay type: cell-based, human; conditions: Homo sapiens, A549, 24 h, 100 ng/ml TNF-α, compounds of about 40 to 90% purity, read-out: Cellular activity grade (A549, IC50)
human IKK-β = target: T1, human IKK-β (Homo sapiens, UniProt O14920); experiment: IKK-β kinase inhibitory assay; assay type: biochemical; conditions: compounds of about 40 to 90% purity, read-out: In vitro activity grade (invitro, IC50)
T1 construct: A cDNA fragment encoding human IKK-β open reading frame was generated by PCR; His; made in house; host or cells: Sf21 insect cells (baculovirus); the GST-IκBα substrate was made in E. coli
T1 sequence (O14920 1-756): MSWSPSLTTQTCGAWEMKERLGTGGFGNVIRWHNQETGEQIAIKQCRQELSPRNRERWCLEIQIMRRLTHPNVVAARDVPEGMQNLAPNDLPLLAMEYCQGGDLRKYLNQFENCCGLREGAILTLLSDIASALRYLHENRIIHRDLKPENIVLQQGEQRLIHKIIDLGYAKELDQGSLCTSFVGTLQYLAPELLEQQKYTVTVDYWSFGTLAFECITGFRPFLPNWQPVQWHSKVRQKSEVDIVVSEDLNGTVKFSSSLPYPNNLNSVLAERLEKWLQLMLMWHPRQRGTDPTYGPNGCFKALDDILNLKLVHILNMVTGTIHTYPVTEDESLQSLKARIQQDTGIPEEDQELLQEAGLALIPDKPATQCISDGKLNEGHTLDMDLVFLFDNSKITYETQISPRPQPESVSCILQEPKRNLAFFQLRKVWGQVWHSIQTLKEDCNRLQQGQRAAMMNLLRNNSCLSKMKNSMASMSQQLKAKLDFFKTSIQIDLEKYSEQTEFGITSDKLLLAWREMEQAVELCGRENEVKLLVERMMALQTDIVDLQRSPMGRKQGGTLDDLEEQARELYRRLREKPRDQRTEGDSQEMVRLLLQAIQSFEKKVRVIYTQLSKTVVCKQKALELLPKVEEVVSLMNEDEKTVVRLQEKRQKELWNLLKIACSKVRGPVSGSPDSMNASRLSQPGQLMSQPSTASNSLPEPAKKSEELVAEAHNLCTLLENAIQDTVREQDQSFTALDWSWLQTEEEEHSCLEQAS
Text: IKK-β Kinase Inhibitory Assay.
• (1) Preparation of IKK-β Kinase Protein. • A cDNA fragment encoding human IKK-β open reading frame was generated by PCR with the use of a pair of primers designed from the published sequence (Woronicz J D et al. (1997) Science 278,866-869). A template was obtained from Quickclone cDNA (Clontech) using Elongase™ Amplification kit (Life Technologies). The DNA fragments generated by PCR were gel-purified and subcloned into pBluescript. The cDNA fragment cloned in pBluescript was inserted into pcDNA3.1/His C KpnI/NotI, and transferred into pVL1393 SmaI/XbaI (Pharmingen) to construct a baculovirus transfer vector. Then the vector, together with the linearized baculovirus (BaculoGold™, Pharmingen) was used to transfect Sf21 cells (Invitrogen, San Diego, Calif.). Generated recombinant baculovirus was cloned and amplified in Sf21 cells, grown in TNM-FH insect cell medium (Life Technologies, Inc.) supplemented with 10% FCS, […] Gentamycin, 0.1% Pluronic F-68 (Life Technologies, Inc.) as suspension culture (200 ml in 1 L Erlenmeyer flask; 27° C.; 130 rpm). Sf21 cells were infected with this amplified virus with a multiplicity of infection of 5 following standard protocols (Crossen R, Gruenwald S (1997) Baculovirus Expression Vector System Instruction Manual, Pharmingen Corporation) and harvested 48 hrs. later. The cells were lysed to obtain the produced chimeric protein of IKK-β kinase fused by histidine (His-tagged IKK-beta). • (2) The Preparation of Purified GST-IκBα Fusion Proteins • An expression vector containing the nucleotide sequence encoding fusion protein of GST with amino acid residues 1 to 54 of IκBα under the control of an IPTG-inducible promoter was constructed. The expression vector was introduced in E. coli and the transformant was cultured and lysed to obtain a GST-IκBα fusion protein. Then the resulting GST-IκBα fusion protein was purified and biotinated for kinase assay. • (3) The Measurement of IKK-β Kinase Activity • The 96-well format kinase assay of IKK-β was performed to test the inhibitory activity of the compounds of the present invention. First, 5 μl of a test compound was put in the presence of 2.5% dimethyl sulfoxide (DMSO) in each well in a U-bottomed 96-well plate (Falcon). For control wells of background (BG) and total phosphorylation (TP), 5 μl of 2.5% DMSO was put. Recombinant IKK-β (final 0.6 μg/ml) and bio-GST-IκBα (1-54) (final 0.2 μM) were diluted in 25 μl of 2×kinase buffer β (40 mM Tris-HCl, pH 7.6, 40 mM MgCl2, 40 mM β-glycerophosphate, 40 mM p-nitrophenyl-phosphate, 2 mM EDTA, 40 mM creatine phosphate, 2 mM DTT, 2 mM Na3VO4, 0.2 mg/ml BSA and 0.8 mM phenylmethylsulfonyl fluoride) and transferred to the 96-well plate. Bio-GST-IκBα (1-54) in 25 μl of 2×kinase buffer β without IKK-β was transferred to BG wells. Then 20 μl of 12.5 μM ATP, 62.5 μCi/ml [γ-^33P] ATP (Amersham Pharmacia Biotech) was added and the resulting mixture was incubated for 2 hrs. at room temperature. The kinase reactions were terminated by the addition of 150 μl of termination buffer (100 mM EDTA, 1 mg/ml BSA, 0.2 mg NaN3). One handred and fifty μl of the sample was transferred to a streptavidin-coated, white MTP (Steffens Biotechniche Analysen GmbH #08114E14. FWD) to capture the biotinylated substrates. After 1 hr. of incubation, non-bound radioactivity was eliminated by washing the wells five times with 300 μl of washing buffer including 0.9% NaCl and 0.1% (w/v) Tween-20 with the use of a MW-96 plate washer (BioTec). The bound radioactivity was determined after the addition of 170 μl MicroScint-PS scintillation cocktail (Packard) using a TopCount scintillation counter. Syk Tyrosine Kinase Inhibitory Assay for Selectivity. • (1) Preparation of Syk Protein • A cDNA fragment encoding human Syk openreading frame was cloned from total RNA of human Burkitt's lymphoma B cell lines, Raji (American Type Culture Collection), with the use of RT-PCR method. […]

SMILES	IC50 [1] [nM]	IC50 (human IKK-β) [nM]
CC(=O)Nc1nc(-c2ccccc2O)cc(-c2cccc(NC(=O)CCN3CCCCC3)c2)c1C#N [Example 2-06]	> 10000	> 10000
Cc1ccc(O)c(-c2cc(-c3cccc(NC(=O)CCN4CCCCC4)c3)c(C#N)c(N)n2)c1 [Example 2-07]	> 10000	2000 to 10000
CN1CCN(C(=O)Nc2cccc(-c3cc(-c4ccccc4O)nc(N)c3C#N)c2)CC1 [Example 2-08]	1000 to 10000	2000 to 10000
N#Cc1c(-c2cccc(NC(=O)NCCN3CCCCC3)c2)cc(-c2ccccc2O)nc1N [Example 2-09]	1000 to 10000	500 to 2000
N#Cc1c(-c2cc(NC(=O)CCN3CCCCC3)ccc2Cl)cc(-c2ccccc2O)nc1N [Example 2-10]	1000 to 10000	500 to 2000
CC(C)C[C@H](N)C(=O)Nc1ccc(F)c(-c2cc(-c3ccccc3O)nc(N)c2C#N)c1 [Example 2-11]	1000 to 10000	500 to 2000
N#Cc1c(-c2cc(NC(=O)CCN)ccc2F)cc(-c2ccccc2O)nc1N [Example 2-12]	> 10000	2000 to 10000
N#Cc1c(-c2ccc(Cl)c(NC(=O)CCN)c2)cc(-c2ccccc2O)nc1N [Example 2-13]	1000 to 10000	< 500
N#Cc1c(-c2cc(NC(=O)CCN3CCCCC3)ccc2F)cc(-c2ccccc2O)nc1N [Example 2-14]	1000 to 10000	500 to 2000
N#Cc1c(-c2ccc(N)c(O)c2)cc(-c2ccccc2O)nc1N [Example 2-15]	1000 to 10000	< 500
CC(=O)Nc1ccc(-c2cc(-c3ccccc3O)nc(N)c2C#N)cc1O [Example 2-16]	1000 to 10000	< 500
N#Cc1c(-c2cccc(NC(=O)CCN3CCCCC3)c2)cc(-c2ncccc2O)nc1N [Example 2-17]	> 10000	500 to 2000
N#Cc1c(-c2ccc(Cl)c(NC(=O)CCN3CCCCC3)c2)cc(-c2ccccc2O)nc1N [Example 2-18]	> 10000	500 to 2000
N#Cc1c(-c2ccc(Cl)c(N)c2)cc(-c2ccccc2O)nc1N [Example 2-19]	1000 to 10000	> 10000
N#Cc1c(-c2ccc(N3CCCC3)c(NC(=O)CCN3CCCCC3)c2)cc(-c2ccccc2O)nc1N [Example 3-1, N-[5-[2-amino-3-cyano-6-(2-hydroxyphenyl)-4-pyridinyl]-2-(1-pyrrolidinyl)phenyl]-3-(1-piperidinyl)propanamide hydrochloride]	1000 to 10000	500 to 2000
N#Cc1c(-c2ccc(N3CCC(N)C3)c(NC(=O)CCN)c2)cc(-c2ccccc2O)nc1N (centres unmarked) [Example 3-02]	1000 to 10000	< 500
N#Cc1c(-c2ccc(N3CCCCC3)c(NC(=O)CCN)c2)cc(-c2ccccc2O)nc1N [Example 3-03]	1000 to 10000	< 500

SMILES	IC50 [1] [nM]	IC50 (human IKK-β) [nM]
N#Cc1c(-c2ccc(N3CCCC3)c(NC(=O)CCN)c2)cc(-c2ccccc2O)nc1N [Example 3-04]	1000 to 10000	< 500
CCN(CCO)c1ccc(-c2cc(-c3ccccc3O)nc(N)c2C#N)cc1NC(=O)CCN [Example 3-05]	1000 to 10000	500 to 2000
N#Cc1c(-c2ccc(N3CCOCC3)c(NC(=O)CCN)c2)cc(-c2ccccc2O)nc1N [Example 3-06]	1000 to 10000	500 to 2000
CN(C)c1ccc(-c2cc(-c3ccccc3O)nc(N)c2C#N)cc1NC(=O)CCN [Example 3-07]	1000 to 10000	< 500
CN(C)c1ccc(-c2cc(-c3ccccc3O)nc(N)c2C#N)cc1NC(=O)CCN1CCCCC1 [Example 3-08]	1000 to 10000	< 500
CN(C)c1ccc(NC(=O)CCN2CCCCC2)cc1-c1cc(-c2ccccc2O)nc(N)c1C#N [Example 3-09]	1000 to 10000	2000 to 10000
N#Cc1c(-c2ccc(N3CCCCC3)c(NC(=O)CCN3CCCCC3)c2)cc(-c2ccccc2O)nc1N [Example 3-10]	1000 to 10000	2000 to 10000
CC(C)C[C@H](N)C(=O)Nc1cc(-c2cc(-c3ccccc3O)nc(N)c2C#N)ccc1N1CCC[C@H]1CO [Example 3-11]	1000 to 10000	500 to 2000
N#Cc1c(-c2ccc(N3CCC[C@H]3CO)c(NC(=O)CCN3CCCCC3)c2)cc(-c2ccccc2O)nc1N [Example 3-12]	1000 to 10000	500 to 2000
CCN(CC)c1ccc(-c2cc(-c3ccccc3O)nc(N)c2C#N)cc1NC(=O)CCN1CCCCC1 [Example 3-13]	1000 to 10000	2000 to 10000
CN(C)[C@H]1CCN(c2ccc(-c3cc(-c4ccccc4O)nc(N)c3C#N)cc2NC(=O)CNCC2CC2)C1 [Example 3-14]	1000 to 10000	< 500
CC(C)C[C@H](N)C(=O)Nc1cc(-c2cc(-c3ccccc3O)nc(N)c2C#N)ccc1N(C)Cc1ccccc1 [Example 3-15]	1000 to 10000	2000 to 10000
CC(C)C[C@H](N)C(=O)Nc1cc(-c2cc(-c3ccccc3O)nc(N)c2C#N)ccc1N1CCC(NC(=O)C(F)(F)F)C1 (some centres unmarked) [Example 3-16]	1000 to 10000	< 500
N#Cc1c(-c2ccc(N3CCC(NC(=O)C(F)(F)F)C3)c(NC(=O)CCN3CCCCC3)c2)cc(-c2ccccc2O)nc1N (centres unmarked) [Example 3-17]	1000 to 10000	< 500
CN(C)c1ccc(-c2cc(-c3ccccc3O)nc(N)c2C#N)cc1NC(=O)CNCC1CC1 [Example 4-1, N^1-[5-[2-amino-3-cyano-6-(2-hydroxyphenyl)-4-pyridinyl]-2-(dimethylamino)phenyl]-N^2-(cyclopropylmethyl)glycinamide hydrochloride]	1000 to 10000	500 to 2000
CN1CCN(CC(=O)Nc2cccc(-c3cc(-c4ccccc4O)nc(N)c3C#N)c2)CC1 [Example 4-02]	1000 to 10000	500 to 2000
N#Cc1c(-c2cccc(NC(=O)CN3CCN(C(=O)c4ccco4)CC3)c2)cc(-c2ccccc2O)nc1N [Example 4-03]	1000 to 10000	2000 to 10000
